From patent US9376662B2, “Increasing cell culture population doublings for long-term growth of finite life span human cell cultures” (The Regents of the University of California, priority 2006, dated 2016)
“Also recorded” adds a separate entry of the source.

How the values were obtained:
Format in all cases: cell-based, human
p16 protein = assay: Immunohistochemical staining for p16 protein and labeling index (LI) in pre-stasis HMEC; conditions: 184 HMEC in M85, 48 days post-seeding, 20% O2
Excerpt: Note the gradually increasing expression of p16 with passage and the gradual reduction in the growing population. Note also the reciprocity between positive labeling of the small cell population with BrdU and the positive staining of the larger cell population for p16 expression.
Referring now to FIGS. 3-5, which show pre-stasis growth of 184 HMEC in different media and immunohistochemical staining for p16 protein. 184 HMEC were started in M85 and subcultured at passage 2 into M85 with cholera toxin with or without oxytocin, in 20% O2. […] Note the large cells staining for p16 with the small cells still negative for p16 but positive for LI (indicative of DNA synthesis).
(§1) Short-term growth assays are done by measuring 24 hr labeling index (LI) at midconfluence and p16 expression and cell numbers at confluence in different media (as shown in FIG. 13). […] Other assays will transfer growing populations a few passages before stasis to media lacking specific components and assay LI and p16 (as shown in FIG. 12).

pre-stasis HMEC [1] = assay: Long-term growth of pre-stasis HMEC: total population doublings (PD) prior to stasis; conditions: for total PD with oxytocin added to M85: oxytocin added at primary culture or passage 2
Method: See FIG. 7, where the increased PD shown by HMEC from specimen 184, batch ⋄, is also seen in HMEC obtained from the 2 other donors tested, 48R, batch T, and 240L, batch B. Specimen 240L was grown only in M85 with oxytocin from primary organoids. Specimen 48R was grown in M85±oxytocin from primary organoids. For comparison, growth of specimen 184 in MM is shown. 184 HMEC batch ⋄ and 48RT+oxytocin were grown in 20% O2. The other cultures were grown in 3% O2.
HMEC placed in a medium containing ˜1% serum and conditioned media (MM) have active growth for ˜15-30 PD; cells grown in a serum-free medium (MCDB170) show active proliferation for ˜10-20 PD; HMEC grown in MM in a low oxygen environment (3% vs. 20%) grow for an additional ˜4 PD.
as §1

pre-stasis HMEC [2] = assay: Growth of pre-stasis HMEC on different substrates; conditions: compared with plastic
Method: Referring to FIG. 18, 184 HMEC, batch f, were grown in MM in primary culture and switched to M85 at passage 2. At passage 4 they were switched to M87 and grown on plastic (♦), laminin on plastic (▪), or laminin on LUMOX dishes (▴) (which allow the cells to grow on a gas-permeable substrate).
Referring to FIG. 19, pre-stasis 48RT HMEC were grown from primary culture in M85+oxytocin and switched at passage 6 to growth on laminin on plastic or plastic alone.

| Molecule | p16 expression with oxytocin compared to without (p16 protein) | growth conditions at the lower oxytocin concentration (pre-stasis HMEC [1]; 0.1 nM compared with 1.0 nM oxytocin) | PD potential in the presence of oxytocin (pre-stasis HMEC [1]; 184 HMEC in M85 with or without oxytocin) | increase in population doublings by oxytocin (pre-stasis HMEC [1]; M85 base medium, about 45 PD to about 60 PD) | total PD with oxytocin added to M85 (pre-stasis HMEC [1]; M85 base medium) | total PD with oxytocin added to M85 (pre-stasis HMEC [1]; M85 base medium, listed as Oxytocin) | proliferation as the cells approach stasis (pre-stasis HMEC [2]) |
| --- | --- | --- | --- | --- | --- | --- | --- |
| CC[C@H](C)[C@@H]1NC(=O)[C@H](Cc2ccc(O)cc2)NC(=O)[C@@H](N)CSSC[C@@H](C(=O)N2CCC[C@H]2C(=O)N[C@@H](CC(C)C)C(=O)NCC(N)=O)NC(=O)[C@H](CC(N)=O)NC(=O)[C@H](CCC(N)=O)NC1=O [oxytocin] | lower level of p16 expression | provided better growth conditions than 1.0 nM | greatly increased PD potential; also recorded: significant increase in total PD | 33% | around 60 PD | up to 60 PD |  |
| laminin |  |  |  |  |  |  | more proliferation occurred |
